Test [1] deals with T1, Mcm2-7.
T1 construct: made in house; host or cells: baculovirus-infected insect cells
The experiment in a line: ssDNA double filter-binding assay, Mcm2-7. Details: species or system Saccharomyces cerevisiae. The conditions noted are these: 1 mM compound, 150 nM helicase.

In test [2] the target is T2, Mcm467 (Saccharomyces cerevisiae, UniProt P30665+P38132+P53091).
T2 construct: made in house; host or cells: baculovirus-infected insect cells
In words: ssDNA double filter-binding assay, Mcm467. The note with it: 1 mM compound, 150 nM helicase.

Test [3] concerns the target T1, Mcm2-7. The experiment in a line: Mcm2-7 helicase (DNA unwinding) assay. It counts as biochemical, Saccharomyces cerevisiae. The conditions noted are these: for IC50: DNA unwinding.
The target in test [4] is T2, Mcm467. In words: Mcm467 helicase (DNA unwinding) assay. It counts as biochemical.
In test [5] the target is SV40 large TAg (T-antigen) (Simian virus 40, UniProt P03070). The experiment in a line: biochemical. Details: species or system SV40 (simian virus 40). The conditions noted are these: for IC50: DNA unwinding.
The subject of test [6] is S. cerevisiae ∆erg6 (UPY675). In words: Yeast growth inhibition, 96-well assay, ∆erg6 strain. It counts as cell-based, Saccharomyces cerevisiae. The conditions noted are these: for IC50: Saccharomyces cerevisiae, ∆erg6 strain, growth over 24 h, read-out: IC50 Yeast.
The test system of another test is RPE-hTERT cells. The experiment in a line: Human cell viability, MTS method. It counts as cell-based. The conditions noted are these: 48 h, value (95% CI). As for the experimental part: Ciproﬂoxacin is an inhibitor of the Mcm2-7 […]
The viability of human cells was assayed using the MTS method
[1]. Brieﬂy, 1 ×10^5 cells of the human non-tumour cell line RPE-hTERT were plated into each well of a 96-well plate and grown in DMEM: F12 containing 10 % (v/v) FBS in 5 % (v/v) CO2 at 37 ◦ C. The next day, the indicated compounds were titrated into media such that the ﬁnal concentration contained 1 % (v/v)
DMSO. As a negative control, media were also prepared that contained 1 % DMSO but lacked compound. After 48 h, the media was removed and replaced with DMEM lacking phenol red but containing Cell Titer 96 Aqueous One Solution Cell Proliferation
Assay (Promega). After 1 h, the A490 nm was measured using a BioRad iMark Microplate Reader (Hercules). Final data reﬂect the average and standard deviation (S.D.) of three replicates at each compound concentration. […]

The test system of a further test is pUC19. The experiment in a line: DNA intercalation assay (Topo I-relaxed plasmid). It counts as biochemical. From the text: To examine this model, we tested our inhibitors in a standard topoisomerase assay. The rationale of this assay is that intercalating compounds will introduce supercoils into a fully relaxed plasmid. Topo I will remove these introduced supercoils, but after quenching and gel electrophoresis the intercalator will diffuse away and produce a detectable compensatory supercoiling increase.

The target of the next test is DnaB (Escherichia coli, UniProt P0ACB0). In words: DnaB helicase assay. It counts as biochemical. The note with it: 1 mM, Figure S3. As for the experimental part:
(§1) Helicase assays were performed essentially as described. Synthetic replication forks were prepared by annealing oligos 233 and 235 [IDT (Coralville), oligo 233 5′(T)40[…]; oligo 235 5′ […](T)40] and then filling in the recessed 3′-end with [α32P]dATP and unlabelled dNTPs using Klenow Fragment. Briefly, reactions ([…]) were performed in 1× helicase assay buffer [20 mM Tris/HCl (pH 7.5), 10 mM MgOAc, 20% (v/v) glycerol, 100 μM EDTA and 5 mM DTT (dithiothreitol)] and contained a final concentration of 1 nM fork substrate, 5 mM ATP, 40 mM creatine phosphate, […] creatine kinase, 33 μg/ml BSA. Reactions containing Mcm2-7 and Mcm467 were supplemented with 200 mM potassium glutamate. Reactions containing SsoMcm were incubated at 65°C, those containing T4 gp41 were incubated for 30 min at 37°C, and all other reactions were incubated at 37°C for 1 h. The products were separated by 10% (w/v) native PAGE, the resulting gels dried and the radioactivity quantified using a Fuji FLA-5100 phosphoimager. Irrespective of the protein used, all helicase assays contained equal molar helicase concentrations (100 nM, assuming in all cases that the active helicase form is hexameric). Steady-state ATP hydrolysis was assayed as published. In short, reactions were set up essentially as in the helicase assay, with minor exceptions. A non-radiolabelled DNA fork was used, helicase concentration was 100 nM (hexamer) the total ATP concentration was 500 μM and included ~0.5 μCi of [α32P]ATP, and the ATP regeneration system was omitted. Reactions were incubated for 1 h at 37°C and stopped by the addition of SDS. ATP was separated from ADP by PEI (polyethyleneimine) thin layer chromatography, and the ratio of ATP:ADP was quantified using a Fuji FLA-5100 phosphoimager. Based on our prior work, conditions were established to ensure that the results shown are within the linear range of the assay. Protein–ssDNA binding was determined with a double filter-binding assay using an ssDNA probe (oligo 826, 5′[…]) that was 5′-radiolabelled using T4 polynucleotide kinase and [γ32P]ATP [16]. For the double filter-binding assay, the helicase concentration was 150 nM (hexamer) and the ssDNA concentration was 4 nM. For all biochemical assays, helicases were preincubated with inhibitors for 20 min at 37°C unless otherwise indicated. […]
(§2) against different helicases
(§3) Representative helicase activity assays in the presence of the indicated inhibitor were tested, quantiﬁed and standardized as described in the legend to F igures 2 (A) and (B). All helicases were assayed at 100 nM
(§4) ﬁnal concentration (hexamer) with inhibitor preincubation prior to ATP […]
(§5) F igure S3 Ciproﬂoxacin poor ly inhibits hexameric helicases un- […]
(§6) All inhibitors were used at 1 mM ﬁnal concentration. […]

The next test concerns the target T3, T4 gp41 (Enterobacteria phage T4, UniProt P04530).
T3 sequence (P04530 1-475): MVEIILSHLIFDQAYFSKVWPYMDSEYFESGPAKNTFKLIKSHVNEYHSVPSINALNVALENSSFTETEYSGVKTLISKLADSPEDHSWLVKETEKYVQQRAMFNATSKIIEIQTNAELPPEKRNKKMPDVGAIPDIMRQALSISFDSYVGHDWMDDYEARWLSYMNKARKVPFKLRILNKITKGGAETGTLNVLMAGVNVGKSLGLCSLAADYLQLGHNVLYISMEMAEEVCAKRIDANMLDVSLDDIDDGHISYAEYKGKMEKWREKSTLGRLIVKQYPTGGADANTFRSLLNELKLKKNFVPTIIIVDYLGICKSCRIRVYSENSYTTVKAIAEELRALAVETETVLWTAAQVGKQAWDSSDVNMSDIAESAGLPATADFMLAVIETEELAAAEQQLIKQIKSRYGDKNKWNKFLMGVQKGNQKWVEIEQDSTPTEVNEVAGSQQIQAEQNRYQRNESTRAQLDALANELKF
In words: T4 gp41 helicase assay. The class given is biochemical. The note with it: 1 mM, Figure S3. As for the experimental part:
as §1, §2, §3, §4, §5, §6

For test [7], the system named is T1, Mcm2-7. In words: Steady-state ATP hydrolysis by Mcm2-7. It counts as biochemical, Saccharomyces cerevisiae. The conditions noted are these: 1 mM compound, 100 nM hexamer.
The target of test [8] is T2, Mcm467. The experiment in a line: Steady-state ATP hydrolysis by Mcm467. The note with it: 1 mM compound, 100 nM hexamer. It counts as biochemical.
In a further test the target is T4, SV40 large TAg (Simian virus 40, UniProt P03070).
T4 construct: made in house
The experiment in a line: Steady-state ATP hydrolysis by TAg. The conditions noted are these: 1 mM compound, 100 nM hexamer. The class given is biochemical, SV40 (simian virus 40).

The mark [9] stands for this setting: 100 nM hexamer, inhibitor preincubation, […], read-out: IC50 T-antigen.
Setting [10] is: 1 mM inhibitor added after plasmid relaxation (Figure 3C).
[11] abbreviates: inhibitor at 2- to 3-fold over calculated helicase IC50 (Figure 3E).
Setting [12] is: 100 nM hexamer, inhibitor preincubation, value (95% CI), read-out: IC50 Mcm2-7.
[13] abbreviates: DNA unwinding, 100 nM hexamer, inhibitor preincubation, value (95% CI), read-out: IC50 Mcm467.
The mark [14] stands for this setting: any concentration tested, results not shown.

Like-named read-outs stand apart in the source and are kept apart here.

SV40 large TAg (T-antigen), sequence (P03070 whole entry, looked up): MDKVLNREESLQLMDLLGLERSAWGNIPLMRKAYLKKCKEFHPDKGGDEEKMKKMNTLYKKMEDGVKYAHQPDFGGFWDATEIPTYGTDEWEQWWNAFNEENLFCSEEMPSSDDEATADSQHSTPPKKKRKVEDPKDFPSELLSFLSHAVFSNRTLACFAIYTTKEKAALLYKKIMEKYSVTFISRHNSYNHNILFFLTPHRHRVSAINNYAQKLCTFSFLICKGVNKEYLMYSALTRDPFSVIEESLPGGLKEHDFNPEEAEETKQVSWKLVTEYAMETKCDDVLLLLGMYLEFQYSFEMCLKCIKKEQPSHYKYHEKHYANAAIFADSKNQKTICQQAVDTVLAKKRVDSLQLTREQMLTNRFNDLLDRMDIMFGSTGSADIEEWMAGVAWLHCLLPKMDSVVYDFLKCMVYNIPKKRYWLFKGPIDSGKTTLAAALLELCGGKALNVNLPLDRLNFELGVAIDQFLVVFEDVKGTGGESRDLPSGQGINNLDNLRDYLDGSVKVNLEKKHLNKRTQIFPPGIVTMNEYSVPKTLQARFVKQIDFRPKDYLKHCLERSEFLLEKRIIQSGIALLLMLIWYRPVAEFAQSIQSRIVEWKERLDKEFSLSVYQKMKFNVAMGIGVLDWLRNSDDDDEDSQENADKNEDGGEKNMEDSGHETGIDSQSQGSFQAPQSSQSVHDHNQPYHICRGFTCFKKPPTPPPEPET
T2 sequence (P30665 whole entry): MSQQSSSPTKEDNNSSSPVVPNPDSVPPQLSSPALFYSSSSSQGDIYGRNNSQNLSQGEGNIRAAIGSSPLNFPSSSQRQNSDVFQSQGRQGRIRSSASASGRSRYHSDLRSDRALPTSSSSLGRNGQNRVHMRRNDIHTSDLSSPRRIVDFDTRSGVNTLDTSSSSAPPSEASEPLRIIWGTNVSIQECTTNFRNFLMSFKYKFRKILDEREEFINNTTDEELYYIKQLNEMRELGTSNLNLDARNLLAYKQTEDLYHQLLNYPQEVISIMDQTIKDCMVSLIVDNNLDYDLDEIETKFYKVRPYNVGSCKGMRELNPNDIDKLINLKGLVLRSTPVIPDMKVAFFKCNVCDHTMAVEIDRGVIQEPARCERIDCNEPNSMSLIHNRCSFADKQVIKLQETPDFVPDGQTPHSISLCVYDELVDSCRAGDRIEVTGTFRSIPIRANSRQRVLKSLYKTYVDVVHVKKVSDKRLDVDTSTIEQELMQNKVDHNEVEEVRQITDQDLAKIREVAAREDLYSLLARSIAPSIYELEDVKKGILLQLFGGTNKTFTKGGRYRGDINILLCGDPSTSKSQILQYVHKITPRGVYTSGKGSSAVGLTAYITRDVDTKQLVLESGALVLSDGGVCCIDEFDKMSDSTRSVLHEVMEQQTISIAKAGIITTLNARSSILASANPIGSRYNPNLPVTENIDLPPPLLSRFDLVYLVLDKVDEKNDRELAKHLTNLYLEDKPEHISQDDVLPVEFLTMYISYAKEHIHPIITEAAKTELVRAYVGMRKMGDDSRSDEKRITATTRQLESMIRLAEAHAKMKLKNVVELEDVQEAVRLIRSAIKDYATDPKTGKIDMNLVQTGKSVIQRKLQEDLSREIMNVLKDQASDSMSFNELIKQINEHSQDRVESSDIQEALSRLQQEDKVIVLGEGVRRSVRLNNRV
T2 sequence (P53091 whole entry): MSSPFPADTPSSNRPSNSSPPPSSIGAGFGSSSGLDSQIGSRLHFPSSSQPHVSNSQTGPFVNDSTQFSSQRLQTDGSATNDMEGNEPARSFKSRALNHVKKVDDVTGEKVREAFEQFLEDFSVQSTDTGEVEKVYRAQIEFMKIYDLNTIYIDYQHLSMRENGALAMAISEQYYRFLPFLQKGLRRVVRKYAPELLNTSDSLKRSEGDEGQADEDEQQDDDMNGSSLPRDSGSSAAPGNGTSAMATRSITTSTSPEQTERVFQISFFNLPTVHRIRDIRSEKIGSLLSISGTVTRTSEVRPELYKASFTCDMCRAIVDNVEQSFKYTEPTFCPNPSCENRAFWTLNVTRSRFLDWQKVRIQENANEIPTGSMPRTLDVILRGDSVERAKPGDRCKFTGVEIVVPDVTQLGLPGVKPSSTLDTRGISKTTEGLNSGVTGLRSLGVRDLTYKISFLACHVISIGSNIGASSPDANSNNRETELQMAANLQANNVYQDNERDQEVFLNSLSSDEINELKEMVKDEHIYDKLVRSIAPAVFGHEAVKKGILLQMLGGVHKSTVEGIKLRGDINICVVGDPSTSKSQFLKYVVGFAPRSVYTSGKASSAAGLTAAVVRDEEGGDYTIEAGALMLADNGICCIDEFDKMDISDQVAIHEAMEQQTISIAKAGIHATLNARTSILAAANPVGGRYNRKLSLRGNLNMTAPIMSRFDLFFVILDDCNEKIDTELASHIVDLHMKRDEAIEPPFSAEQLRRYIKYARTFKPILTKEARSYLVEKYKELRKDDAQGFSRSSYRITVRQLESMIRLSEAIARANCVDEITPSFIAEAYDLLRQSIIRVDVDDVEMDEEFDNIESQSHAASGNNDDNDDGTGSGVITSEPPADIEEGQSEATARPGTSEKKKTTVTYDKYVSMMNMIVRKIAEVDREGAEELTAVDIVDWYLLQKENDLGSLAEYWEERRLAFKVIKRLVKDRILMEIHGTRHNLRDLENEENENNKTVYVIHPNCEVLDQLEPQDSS
T2 sequence (P38132 whole entry): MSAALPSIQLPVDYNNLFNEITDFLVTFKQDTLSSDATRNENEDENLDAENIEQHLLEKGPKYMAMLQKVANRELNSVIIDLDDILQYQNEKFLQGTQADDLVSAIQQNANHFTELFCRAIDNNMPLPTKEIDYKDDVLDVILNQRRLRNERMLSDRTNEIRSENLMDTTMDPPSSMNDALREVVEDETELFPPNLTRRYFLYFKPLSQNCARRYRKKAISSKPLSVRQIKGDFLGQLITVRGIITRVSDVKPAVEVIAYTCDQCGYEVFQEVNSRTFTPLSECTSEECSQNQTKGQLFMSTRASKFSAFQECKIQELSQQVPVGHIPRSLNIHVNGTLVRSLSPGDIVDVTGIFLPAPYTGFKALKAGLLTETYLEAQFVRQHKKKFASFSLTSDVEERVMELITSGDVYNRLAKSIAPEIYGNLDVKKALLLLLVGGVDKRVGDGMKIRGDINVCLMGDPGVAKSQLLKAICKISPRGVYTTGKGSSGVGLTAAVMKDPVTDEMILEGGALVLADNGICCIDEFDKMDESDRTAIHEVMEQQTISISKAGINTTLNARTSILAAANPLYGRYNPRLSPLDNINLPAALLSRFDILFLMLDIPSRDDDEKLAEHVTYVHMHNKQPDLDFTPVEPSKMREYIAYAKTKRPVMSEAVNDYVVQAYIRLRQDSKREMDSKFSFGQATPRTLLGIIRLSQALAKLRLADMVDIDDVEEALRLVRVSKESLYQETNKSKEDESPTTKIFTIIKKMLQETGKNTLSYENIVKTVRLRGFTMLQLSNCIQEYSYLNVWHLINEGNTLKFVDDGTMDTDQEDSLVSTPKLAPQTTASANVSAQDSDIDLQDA
DnaB, sequence (P0ACB0 whole entry, the tested form may be a part): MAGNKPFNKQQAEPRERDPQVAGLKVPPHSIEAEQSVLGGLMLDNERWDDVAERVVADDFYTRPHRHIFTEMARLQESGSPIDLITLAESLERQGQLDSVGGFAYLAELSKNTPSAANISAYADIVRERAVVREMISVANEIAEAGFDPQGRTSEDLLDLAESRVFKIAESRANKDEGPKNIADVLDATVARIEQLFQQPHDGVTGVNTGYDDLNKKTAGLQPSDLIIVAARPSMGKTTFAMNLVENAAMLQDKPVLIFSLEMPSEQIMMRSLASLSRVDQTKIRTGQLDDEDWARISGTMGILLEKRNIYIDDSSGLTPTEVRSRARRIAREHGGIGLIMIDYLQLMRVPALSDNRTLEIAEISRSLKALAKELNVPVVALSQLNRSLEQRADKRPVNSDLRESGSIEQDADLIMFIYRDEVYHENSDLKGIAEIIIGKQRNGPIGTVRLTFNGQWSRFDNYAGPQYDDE
T4 sequence (P03070 whole entry): as the sequence (P03070 whole entry, looked up) above

With `CCN1C(=O)C=CC1=O` [NEM, N-ethylmaleimide], the “effect on ssDNA binding of Mcm2-7” value in the test with Mcm2-7 [1] is given as “inhibit”. The “effect on ssDNA binding of Mcm467” value at Mcm467 [2] is listed as “inhibit”.

Consider `Cc1c(F)c(N2CCC(N)C2)nc2c1c(=O)c(C(=O)O)cn2C1CC1` (stereo not shown) [compound 125248], for which the IC50 (in general, the concentration that inhibits the measured activity by half) on Mcm2-7 [3] (read-out: IC50 Mcm2-7, 100 nM hexamer, inhibitor preincubation, value (95% CI)) is 72 µM; at Mcm467 [4] (IC50 Mcm467, DNA unwinding, 100 nM hexamer, inhibitor preincubation, value (95% CI)) it was 130 µM; in test [5] (setting [9]), 190 µM; in test [6] (value (95% CI)) it was 460 µM; in the test with RPE-hTERT cells it was 14 µM; in the test on RPE-hTERT cells (Homo sapiens), approximately 10 µM. Also, the DNA intercalation result in the test on pUC19 (setting [10]) is given as “extensive DNA intercalation”; with pUC19 (setting [11]), “significant DNA intercalation”. In addition, the “inhibition of DnaB helicase” value on DnaB is “nearly complete inhibition”. In addition, on T4 gp41, the “inhibition of T4 gp41 helicase” value is recorded as “nearly complete inhibition”.

Turning to `Cc1ccc(-c2cc(-c3ccccc3)nc(N3CCNCC3)n2)cc1` [compound 388612], the IC50 was 396 µM at Mcm2-7 [3] (setting [12]), 345 µM at Mcm467 [4] (setting [13]), 126 µM in [5] (setting [9]) and less than 0.01 µM in test [6] (insufficient data for 95% CI). The DNA intercalation result in the test with pUC19 (setting [10]) is on record as “extensive DNA intercalation”.

With `c1ccc(Nc2nc(Nc3ccccc3)nc(N3CCNCC3)n2)cc1` [compound 924384], the 50% inhibitory concentration (IC50) at Mcm2-7 [3] (setting [12]) is 115 µM; at Mcm467 [4] (setting [13]), 246 µM; in [5] (setting [9]), 70 µM; in test [6] (value (95% CI)), 93 µM; with RPE-hTERT cells (Homo sapiens), approximately 10 µM. Moreover, the DNA intercalation entry with pUC19 (setting [10]) is “extensive DNA intercalation”. In addition, the “inhibition of DnaB helicase” value against DnaB is “nearly complete inhibition”. The “inhibition of T4 gp41 helicase” value against T4 gp41 is “nearly complete inhibition”.

As for `NC1CCN(c2ccc3c(=O)c(C(=O)O)cn(-c4ccc(O)cc4)c3c2Cl)C1` (stereo not shown) [compound 268973], the IC50 on Mcm2-7 [3] (setting [12]) was 188 µM; at Mcm467 [4] (setting [13]), 272 µM; in test [5] (setting [9]), 476 µM; in test [6] (value (95% CI)) it was 160 µM. Also, in the test with Mcm2-7 [7], the “effect on ATP hydrolysis of Mcm2-7” value is “modest inhibition”. On Mcm467 [8], the “effect on ATP hydrolysis of Mcm467” value is reported as “modest inhibition”. For the same molecule, the “effect on ATP hydrolysis of TAg” value at SV40 large TAg was “modest inhibition”. The DNA intercalation result is recorded as “extensive DNA intercalation” in the test on pUC19 (setting [10]) and “significant DNA intercalation” in the test on pUC19 (setting [11]). For the same molecule, at DnaB, the “inhibition of DnaB helicase” value is recorded as “nearly complete inhibition”. The “inhibition of T4 gp41 helicase” value against T4 gp41 is listed as “nearly complete inhibition”.

Consider `CCn1cc(C(=O)O)c(=O)c2ccc(C)nc21` [naladixic acid, reference compound], for which the “effect on Mcm2-7 helicase activity” value in the test on Mcm2-7 [3] (setting [14]) is “essentially no effect”. Moreover, at Mcm467 [4] (setting [14]), the “effect on Mcm467 helicase activity” value is “essentially no effect”. Moreover, the “effect on TAg helicase activity” value in test [5] (setting [14]) is given as “essentially no effect”.

Turning to `CC1COc2c(N3CCN(C)CC3)c(F)cc3c(=O)c(C(=O)O)cn1c23` (stereo not shown) [ofloxacin, reference compound], the IC50 at Mcm2-7 [3] (100 nM complex, read-out: IC50 Mcm2-7 helicase activity) is 4170 µM; on Mcm467 [4] (DNA unwinding, 100 nM complex, read-out: IC50 Mcm467 helicase activity), 5290 µM; in test [5] (100 nM complex, read-out: IC50 TAg helicase activity), more than 20000 µM. Further, in test [6] (Figure 4A), the “growth response of ∆erg6 yeast” value is on record as “demonstrable growth sensitivity”.
